# What was measured:
# [1] = system: Ba/F3 TPM3-NTRK1 L564H cells; assay: CellTiter-Glo cell viability assay; format: cell-based, murine; settings: Mus musculus, BaF3, 72 h
# [2] = system: Ba/F3 TPM3-NTRK1 G595L cells; assay: CellTiter-Glo cell viability assay; format: cell-based, murine; settings: Mus musculus, BaF3, 72 h
# [3] = system: phospho-ROS1 in JFCR-165 cells; assay: Immunoblot of ROS1 autophosphorylation; format: cell-based, human; settings: 6 h
# Description: (§1) Lysates were prepared using 1x SDS lysis buffer (1% SDS and 10% glycerol in 100 mM Tris–HCl [pH 7.5])[27]. […] All the primary antibody was used 1:1000 dilution for immunoblot analysis.
# [4] = system: phospho-ROS1 in JFCR-168 cells; assay: Immunoblot of ROS1 autophosphorylation; format: cell-based, human; settings: 6 h
# Description: as §1
# [5] = system: phospho-ROS1 in MGH193-1B cells; assay: Immunoblot of ROS1 autophosphorylation; format: cell-based, human; settings: 6 h
# Description: as §1
# [6] = Body weight of CTG-0848 PDX mice; format: in vivo, mouse; design: Body weight change (Supp Figure S5b), group average: unit not given here
# [7] = biological target: T1, ALK (Homo sapiens, UniProt Q9UM73); assay: Kinase assay, ATP Km; format: biochemical
# T1 construct: purchased Carna Biosciences, Inc. (Kobe, Japan); assay run by the vendor
# [8] = biological target: T2, TXK (Homo sapiens, UniProt P42681); assay: Kinase assay, ATP Km; format: biochemical
# T2 construct: purchased Carna Biosciences, Inc. (Kobe, Japan); assay run by the vendor
# T2 sequence (P42681 1-527): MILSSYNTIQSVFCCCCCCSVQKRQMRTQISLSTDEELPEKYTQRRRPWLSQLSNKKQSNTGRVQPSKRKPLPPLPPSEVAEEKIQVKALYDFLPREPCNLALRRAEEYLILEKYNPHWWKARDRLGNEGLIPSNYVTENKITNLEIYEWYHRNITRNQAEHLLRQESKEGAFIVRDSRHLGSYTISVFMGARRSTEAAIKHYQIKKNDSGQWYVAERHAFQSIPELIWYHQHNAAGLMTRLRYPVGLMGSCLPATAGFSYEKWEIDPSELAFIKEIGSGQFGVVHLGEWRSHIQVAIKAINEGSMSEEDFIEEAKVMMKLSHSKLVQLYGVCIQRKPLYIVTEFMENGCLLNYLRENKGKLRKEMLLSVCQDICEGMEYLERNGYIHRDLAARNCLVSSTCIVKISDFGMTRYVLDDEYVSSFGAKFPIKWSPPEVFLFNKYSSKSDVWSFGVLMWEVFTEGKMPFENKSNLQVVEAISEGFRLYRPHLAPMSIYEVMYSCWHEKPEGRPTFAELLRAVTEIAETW
# [9] = biological target: YES (Homo sapiens, UniProt P07947); assay: Kinase assay, ATP Km; format: biochemical
# [10] = biological target: T3, NDR1 (Homo sapiens, UniProt Q15208); assay: Kinase assay, ATP Km; format: biochemical
# T3 construct: purchased Carna Biosciences
# [11] = biological target: T4, MER (Homo sapiens, UniProt Q12866); assay: Kinase assay, ATP Km; format: biochemical
# T4 construct: purchased Carna Biosciences
# [12] = biological target: T5, FGFR1 (Homo sapiens, UniProt P11362); assay: Kinase assay, ATP Km; format: biochemical
# T5 construct: purchased Carna Biosciences
# [13] = biological target: T6, TEC (Homo sapiens, UniProt P42680); assay: Kinase assay, ATP Km; format: biochemical
# T6 construct: purchased Carna Biosciences
# [14] = biological target: T7, FGFR3 (Homo sapiens, UniProt P22607); assay: Kinase assay, ATP Km; format: biochemical
# T7 construct: purchased Carna Biosciences
# [15] = biological target: CLK2 (Homo sapiens, UniProt P49760); assay: Kinase assay, ATP Km; format: biochemical
# [16] = biological target: T8, MRCKβ (Homo sapiens, UniProt Q9Y5S2); assay: Kinase assay, ATP Km; format: biochemical
# T8 construct: purchased Carna Biosciences
# [17] = biological target: CK1γ3 (Homo sapiens, UniProt Q9Y6M4); assay: Kinase assay, ATP Km; format: biochemical
# [18] = biological target: DAPK1 (Homo sapiens, UniProt P53355); assay: Kinase assay, ATP Km; format: biochemical
# [19] = biological target: T9, TSSK3 (Homo sapiens, UniProt Q96PN8); assay: Kinase assay, ATP Km; format: biochemical
# T9 construct: purchased Carna Biosciences
# [20] = biological target: T10, PKD1 (Homo sapiens, UniProt Q15139); assay: Kinase assay, ATP Km; format: biochemical
# T10 construct: purchased Carna Biosciences
# [21] = biological target: CDK2/CycA2 (Homo sapiens, UniProt P24941); assay: Kinase assay, ATP Km; format: biochemical
# [22] = biological target: CaMK2β (Homo sapiens, UniProt Q13554); assay: Kinase assay, ATP Km; format: biochemical
# [23] = biological target: p38β (Homo sapiens, UniProt Q15759); assay: Kinase assay, ATP Km; format: biochemical
# [24] = biological target: CaMK1α (Homo sapiens, UniProt Q14012); assay: Kinase assay, ATP Km; format: biochemical
# [25] = biological target: T11, PLK2 (Homo sapiens, UniProt Q9NYY3); assay: Kinase assay, ATP Km; format: biochemical
# T11 construct: purchased Carna Biosciences
# [26] = biological target: JNK3 (Homo sapiens, UniProt P53779); assay: Kinase assay, ATP Km; format: biochemical
# [27] = biological target: T12, MELK (Homo sapiens, UniProt Q14680); assay: Kinase assay, ATP Km; format: biochemical
# T12 construct: purchased Carna Biosciences
# [28] = biological target: T13, NTRK1 (Homo sapiens, UniProt P04629); assay: Kinase assay, 1 mM ATP; format: biochemical
# T13 construct: purchased Carna Biosciences, Inc. (Kobe, Japan)
# T13 sequence (P04629 33-796): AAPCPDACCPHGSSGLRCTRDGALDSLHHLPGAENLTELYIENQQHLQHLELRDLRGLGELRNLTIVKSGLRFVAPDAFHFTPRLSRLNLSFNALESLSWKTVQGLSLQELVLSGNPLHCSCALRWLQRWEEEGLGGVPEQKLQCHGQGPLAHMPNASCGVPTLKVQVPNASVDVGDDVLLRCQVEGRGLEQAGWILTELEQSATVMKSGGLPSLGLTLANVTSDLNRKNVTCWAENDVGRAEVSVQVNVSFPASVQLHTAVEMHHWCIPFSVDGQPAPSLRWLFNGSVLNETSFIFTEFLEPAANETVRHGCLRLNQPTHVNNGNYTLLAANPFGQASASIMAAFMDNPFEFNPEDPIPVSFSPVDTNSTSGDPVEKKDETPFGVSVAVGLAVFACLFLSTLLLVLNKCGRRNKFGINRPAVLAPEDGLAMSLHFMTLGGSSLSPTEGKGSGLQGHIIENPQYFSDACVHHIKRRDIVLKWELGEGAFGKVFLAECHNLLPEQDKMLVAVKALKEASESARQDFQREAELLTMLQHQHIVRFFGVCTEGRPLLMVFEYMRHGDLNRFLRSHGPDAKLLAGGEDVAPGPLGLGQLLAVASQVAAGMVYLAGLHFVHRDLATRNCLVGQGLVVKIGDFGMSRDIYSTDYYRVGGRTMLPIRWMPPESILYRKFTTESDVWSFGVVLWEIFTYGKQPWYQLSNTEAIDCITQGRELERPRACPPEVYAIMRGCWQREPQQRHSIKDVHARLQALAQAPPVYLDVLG
# T10 sequence (Q15139 whole entry): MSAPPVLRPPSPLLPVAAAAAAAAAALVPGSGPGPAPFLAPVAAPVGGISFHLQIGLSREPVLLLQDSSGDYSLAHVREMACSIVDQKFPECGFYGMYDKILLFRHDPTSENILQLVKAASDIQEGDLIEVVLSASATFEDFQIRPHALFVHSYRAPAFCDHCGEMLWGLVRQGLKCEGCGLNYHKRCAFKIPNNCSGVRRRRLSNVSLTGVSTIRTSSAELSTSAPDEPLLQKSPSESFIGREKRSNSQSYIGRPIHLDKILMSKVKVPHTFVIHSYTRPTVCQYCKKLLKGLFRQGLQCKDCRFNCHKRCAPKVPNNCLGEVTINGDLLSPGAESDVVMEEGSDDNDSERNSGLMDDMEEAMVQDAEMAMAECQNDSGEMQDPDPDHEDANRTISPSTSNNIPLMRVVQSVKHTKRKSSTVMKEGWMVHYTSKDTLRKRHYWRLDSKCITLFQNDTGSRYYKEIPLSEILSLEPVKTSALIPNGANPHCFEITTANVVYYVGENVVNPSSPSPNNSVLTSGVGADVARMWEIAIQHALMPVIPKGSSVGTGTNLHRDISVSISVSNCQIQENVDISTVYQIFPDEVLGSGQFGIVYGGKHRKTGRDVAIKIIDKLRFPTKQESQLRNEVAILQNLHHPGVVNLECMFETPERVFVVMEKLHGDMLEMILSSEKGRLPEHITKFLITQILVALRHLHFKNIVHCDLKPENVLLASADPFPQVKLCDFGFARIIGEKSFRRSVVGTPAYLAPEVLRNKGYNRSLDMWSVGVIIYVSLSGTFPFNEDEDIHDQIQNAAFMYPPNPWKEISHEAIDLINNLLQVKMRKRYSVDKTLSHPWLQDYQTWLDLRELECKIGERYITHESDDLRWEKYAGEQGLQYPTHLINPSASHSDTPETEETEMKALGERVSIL
# Chain of p38β (Q15759 whole entry): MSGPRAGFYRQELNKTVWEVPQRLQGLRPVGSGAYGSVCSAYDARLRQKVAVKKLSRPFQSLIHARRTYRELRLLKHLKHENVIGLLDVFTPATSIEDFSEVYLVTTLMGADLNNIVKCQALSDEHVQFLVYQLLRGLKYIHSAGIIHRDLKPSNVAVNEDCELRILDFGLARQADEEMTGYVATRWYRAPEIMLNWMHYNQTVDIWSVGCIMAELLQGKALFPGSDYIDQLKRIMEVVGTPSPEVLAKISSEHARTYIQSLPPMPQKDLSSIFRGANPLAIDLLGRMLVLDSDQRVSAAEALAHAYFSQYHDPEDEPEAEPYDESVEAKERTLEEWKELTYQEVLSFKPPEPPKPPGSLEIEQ
# T7 sequence (P22607 23-806): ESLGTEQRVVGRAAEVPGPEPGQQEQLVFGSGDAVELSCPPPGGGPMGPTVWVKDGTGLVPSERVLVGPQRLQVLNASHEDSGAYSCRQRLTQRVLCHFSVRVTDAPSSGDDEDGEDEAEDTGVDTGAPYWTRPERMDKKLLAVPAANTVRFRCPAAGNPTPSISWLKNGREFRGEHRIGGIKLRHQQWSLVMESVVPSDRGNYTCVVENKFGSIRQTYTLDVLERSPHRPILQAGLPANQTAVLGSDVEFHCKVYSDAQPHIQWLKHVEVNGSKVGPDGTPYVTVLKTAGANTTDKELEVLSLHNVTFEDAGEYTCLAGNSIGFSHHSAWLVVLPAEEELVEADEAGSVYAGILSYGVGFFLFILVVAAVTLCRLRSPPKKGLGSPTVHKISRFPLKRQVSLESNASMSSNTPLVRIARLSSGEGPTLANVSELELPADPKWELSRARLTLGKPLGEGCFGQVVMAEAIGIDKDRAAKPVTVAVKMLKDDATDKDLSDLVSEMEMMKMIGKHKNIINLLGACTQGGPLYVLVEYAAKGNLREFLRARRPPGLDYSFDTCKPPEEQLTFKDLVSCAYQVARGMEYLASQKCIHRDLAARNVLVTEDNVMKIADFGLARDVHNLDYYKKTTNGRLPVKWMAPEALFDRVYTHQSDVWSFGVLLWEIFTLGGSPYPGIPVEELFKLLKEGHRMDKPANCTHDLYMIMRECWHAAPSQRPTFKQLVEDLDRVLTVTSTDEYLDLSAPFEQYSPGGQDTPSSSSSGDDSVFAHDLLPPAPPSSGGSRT
# T9 sequence (Q96PN8 whole entry): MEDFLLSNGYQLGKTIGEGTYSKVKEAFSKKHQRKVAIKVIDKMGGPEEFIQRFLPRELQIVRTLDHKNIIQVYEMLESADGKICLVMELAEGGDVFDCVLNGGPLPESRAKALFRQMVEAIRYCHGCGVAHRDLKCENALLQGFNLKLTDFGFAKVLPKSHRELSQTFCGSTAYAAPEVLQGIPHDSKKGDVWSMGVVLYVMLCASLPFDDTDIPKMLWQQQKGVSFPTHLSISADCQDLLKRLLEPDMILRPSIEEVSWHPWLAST
# T1 sequence (Q9UM73 19-1620): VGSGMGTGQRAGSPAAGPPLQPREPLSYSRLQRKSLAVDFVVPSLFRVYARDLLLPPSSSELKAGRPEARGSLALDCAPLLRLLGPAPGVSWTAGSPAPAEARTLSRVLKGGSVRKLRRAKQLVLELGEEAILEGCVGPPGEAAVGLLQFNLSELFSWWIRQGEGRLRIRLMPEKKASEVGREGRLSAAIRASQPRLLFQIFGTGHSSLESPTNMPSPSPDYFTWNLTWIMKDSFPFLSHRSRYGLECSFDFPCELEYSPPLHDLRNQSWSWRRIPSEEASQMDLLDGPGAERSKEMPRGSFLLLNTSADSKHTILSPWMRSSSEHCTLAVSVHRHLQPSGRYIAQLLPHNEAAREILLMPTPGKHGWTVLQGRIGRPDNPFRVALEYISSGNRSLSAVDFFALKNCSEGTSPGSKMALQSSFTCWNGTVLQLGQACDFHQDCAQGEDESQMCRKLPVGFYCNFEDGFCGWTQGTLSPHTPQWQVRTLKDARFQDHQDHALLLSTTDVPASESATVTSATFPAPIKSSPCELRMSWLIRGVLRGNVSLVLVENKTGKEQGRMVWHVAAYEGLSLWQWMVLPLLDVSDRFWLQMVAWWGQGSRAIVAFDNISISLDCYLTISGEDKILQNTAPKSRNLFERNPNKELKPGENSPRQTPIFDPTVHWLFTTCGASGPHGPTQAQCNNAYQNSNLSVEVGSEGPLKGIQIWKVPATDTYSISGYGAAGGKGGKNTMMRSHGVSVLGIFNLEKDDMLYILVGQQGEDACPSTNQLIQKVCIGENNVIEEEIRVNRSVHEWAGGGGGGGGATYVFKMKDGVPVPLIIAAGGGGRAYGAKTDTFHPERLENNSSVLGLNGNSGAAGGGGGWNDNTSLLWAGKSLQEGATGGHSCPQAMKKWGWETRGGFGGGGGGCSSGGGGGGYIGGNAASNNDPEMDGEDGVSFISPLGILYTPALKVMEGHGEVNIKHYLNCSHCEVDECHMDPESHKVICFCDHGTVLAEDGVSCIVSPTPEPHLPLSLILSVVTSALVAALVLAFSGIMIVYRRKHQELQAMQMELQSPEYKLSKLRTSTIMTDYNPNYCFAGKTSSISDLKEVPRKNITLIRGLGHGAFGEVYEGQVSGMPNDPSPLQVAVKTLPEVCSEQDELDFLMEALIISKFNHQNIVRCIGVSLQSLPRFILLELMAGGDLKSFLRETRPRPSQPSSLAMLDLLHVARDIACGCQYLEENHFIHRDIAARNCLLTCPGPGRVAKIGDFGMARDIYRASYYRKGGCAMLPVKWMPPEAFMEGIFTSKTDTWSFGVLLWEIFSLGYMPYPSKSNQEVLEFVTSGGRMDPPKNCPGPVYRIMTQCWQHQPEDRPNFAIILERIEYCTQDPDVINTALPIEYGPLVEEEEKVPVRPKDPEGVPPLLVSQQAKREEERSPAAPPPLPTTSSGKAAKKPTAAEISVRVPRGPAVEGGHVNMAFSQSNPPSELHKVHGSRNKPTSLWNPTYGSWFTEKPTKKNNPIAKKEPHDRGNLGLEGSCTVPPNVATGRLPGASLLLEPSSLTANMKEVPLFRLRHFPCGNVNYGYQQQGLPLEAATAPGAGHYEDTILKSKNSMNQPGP
smiles,measurement,setting,value
C[C@@H](N)COc1ccc(-c2cnc3ccc(N[C@H](C)c4cccc(F)c4)nn23)cc1.O=C(O)CCCCC(=O)O [DS-6051b],IC50,[1],25.8 nM
same,IC50,[2],29.2 nM
same,Inhibition of autophosphorylation of ROS1,[3],potently inhibited
same,Inhibition of autophosphorylation of ROS1,[4],potently inhibited
same,Inhibition of autophosphorylation of ROS1,[5],potently inhibited
same,"Body weight change (Supp Figure S5b), group average","[6]; DS-6051b 10 mg/kg, day 0",0.0
same,"Body weight change (Supp Figure S5b), group average","[6]; DS-6051b 10 mg/kg, day 4",1.0
same,"Body weight change (Supp Figure S5b), group average","[6]; DS-6051b 10 mg/kg, day 7",-0.4
same,"Body weight change (Supp Figure S5b), group average","[6]; DS-6051b 10 mg/kg, day 11",0.9
same,"Body weight change (Supp Figure S5b), group average","[6]; DS-6051b 10 mg/kg, day 14",-0.56
same,"Body weight change (Supp Figure S5b), group average","[6]; DS-6051b 10 mg/kg, day 18",1.2
same,"Body weight change (Supp Figure S5b), group average","[6]; DS-6051b 10 mg/kg, day 21",0.7
same,"Body weight change (Supp Figure S5b), group average","[6]; DS-6051b 10 mg/kg, day 26",1.2
same,"Body weight change (Supp Figure S5b), group average","[6]; DS-6051b 10 mg/kg, day 28",7.1
same,"Body weight change (Supp Figure S5b), group average","[6]; DS-6051b 30 mg/kg, day 0",0.0
same,"Body weight change (Supp Figure S5b), group average","[6]; DS-6051b 30 mg/kg, day 4",1.8
same,"Body weight change (Supp Figure S5b), group average","[6]; DS-6051b 30 mg/kg, day 7",-0.32
same,"Body weight change (Supp Figure S5b), group average","[6]; DS-6051b 30 mg/kg, day 11",0.8
same,"Body weight change (Supp Figure S5b), group average","[6]; DS-6051b 30 mg/kg, day 14",-0.5
same,"Body weight change (Supp Figure S5b), group average","[6]; DS-6051b 30 mg/kg, day 18",1.7
same,"Body weight change (Supp Figure S5b), group average","[6]; DS-6051b 30 mg/kg, day 21",2.2
same,"Body weight change (Supp Figure S5b), group average","[6]; DS-6051b 30 mg/kg, day 26",-0.07
same,"Body weight change (Supp Figure S5b), group average","[6]; DS-6051b 30 mg/kg, day 28",5.1
same,"Body weight change (Supp Figure S5b), group average","[6]; DS-6051b 100 mg/kg, day 0",0.0
same,"Body weight change (Supp Figure S5b), group average","[6]; DS-6051b 100 mg/kg, day 4",0.53
same,"Body weight change (Supp Figure S5b), group average","[6]; DS-6051b 100 mg/kg, day 7",0.23
same,"Body weight change (Supp Figure S5b), group average","[6]; DS-6051b 100 mg/kg, day 11",1.6
same,"Body weight change (Supp Figure S5b), group average","[6]; DS-6051b 100 mg/kg, day 14",0.18
same,"Body weight change (Supp Figure S5b), group average","[6]; DS-6051b 100 mg/kg, day 18",4.3
same,"Body weight change (Supp Figure S5b), group average","[6]; DS-6051b 100 mg/kg, day 21",2.5
same,"Body weight change (Supp Figure S5b), group average","[6]; DS-6051b 100 mg/kg, day 26",0.66
same,"Body weight change (Supp Figure S5b), group average","[6]; DS-6051b 100 mg/kg, day 28",4.5
same,Body weight loss,[6]; ≥10 mg/kg,without significant body weight loss
same,inhibition at 0.04 µM,[7],103%
same,inhibition at 0.04 µM,[8],88.9%
same,inhibition at 0.04 µM,[9],65.2%
same,inhibition at 0.04 µM,[10],51.2%
same,inhibition at 0.04 µM,[11],48.7%
same,inhibition at 0.04 µM,[12],39.6%
same,inhibition at 0.04 µM,[13],37.2%
same,inhibition at 0.04 µM,[14],26.4%
same,inhibition at 0.04 µM,[15],9.9%
same,inhibition at 0.04 µM,[16],7.6%
same,inhibition at 0.04 µM,[17],6.7%
same,inhibition at 0.04 µM,[18],6.2%
same,inhibition at 0.04 µM,[19],3.2%
same,inhibition at 0.04 µM,[20],3.2%
same,inhibition at 0.04 µM,[21],3%
same,inhibition at 0.04 µM,[22],1.7%
same,inhibition at 0.04 µM,[23],1.4%
same,inhibition at 0.04 µM,[24],0.9%
same,inhibition at 0.04 µM,[25],-1.5%
same,inhibition at 0.04 µM,[26],-1.8%
same,inhibition at 0.04 µM,[27],-2.2%
same,inhibition at 0.2 µM,"[28]; 0.2μM, 1 mM ATP",100%
same,IC50,[28]; ATP: 1 mM,3.01 nM

# — publication PMC6688997 (Nature Communications, 2019)
